From ChEMBL document CHEMBL3351617, “Concise syntheses of 7-anilino-indoline-N-benzenesulfonamides as antimitotic and vascular disrupting agents” (Bioorg Med Chem, 2014) come the findings set out here.

Data set [1] concerns KB. Put plainly: Antiproliferative activity against human KB cells. The format is functional, cell-based.
Data set [2] is described as follows: Retention time of the compound by HPLC. The format is physicochemical.
Data set [3] has as its system HT-29. Description: Antiproliferative activity against human HT-29 cells. The format is functional, cell-based.
Data set [4] is described as follows: Antiproliferative activity against human MKN45 cells. The class given is functional, cell-based. The note with it: MKN-45.
A short description of data set [5]: Antiproliferative activity against human KB-7d cells. The class given is functional, cell-based. The settings on record: KB7D.
The nature of data set [6]: Antiproliferative activity against human KB-VIN10 cells. The class given is functional, cell-based.
Data set [7] has as its target T1, Tubulin (Homo sapiens) (UniProt P68371+Q9H4B7+P0DPH7+P68366+Q13509+Q71U36+P04350+Q3ZCM7+P07437+P68363+Q9BQE3+Q6PEY2+Q13885+Q9BVA1+Q9BUF5). Description: Displacement of [3H]colchicine from long-chain biotin-labeled tubulin (unknown origin) at 5 uM after 2 hrs by competition-binding scintillation proximity assay. The class given is protein-complex assay. In general terms: In a radioligand displacement assay an active substance lowers the binding of a labelled ligand.

Data set [8] deals with T1, Tubulin (Homo sapiens). Put plainly: Displacement of [3H]colchicine from long-chain biotin-labeled tubulin (unknown origin) at 1 uM after 2 hrs by competition-binding scintillation proximity assay. The format is protein-complex assay.
The next data set concerns MKN-45. Description: Ratio of ABT751 IC50 to compound IC50 for human MKN45 cells. The format is functional.
Another data set addresses Tubulin. Put plainly: Inhibition of tubulin (unknown origin) polymerization by spectrophotometry. The class given is protein-complex assay, Homo sapiens.
Data set [9] in a line: Antiproliferative activity against human KB-S15 cells. The class given is functional, cell-based.
The subject of data set [10] is HT-29. Put plainly: Ratio of ABT751 IC50 to compound IC50 for human HT-29 cells. The format is functional.
For data set [11], the system named is KB. Description: Cell cycle arrest in human KB cells assessed as reduction of cells at S phase at 25 to 400 nM after 24 hrs using propidium iodide staining by flow cytometry. The class given is functional, cell-based. In general terms: In flow cytometry, cells or beads pass a laser one at a time.
Data set [12] has as its system KB. Description: Cell cycle arrest in human KB cells assessed as reduction of cells at G1 phase at 25 to 400 nM after 24 hrs using propidium iodide staining by flow cytometry. The class given is functional, cell-based.
In data set [13] the test system is HUVEC. Put plainly: Disruption of vasculature in HUVECs assessed as inhibition of VEGF-induced capillary tube formation by microscopy. The format is functional, cell-based. The settings on record: Homo sapiens.
Data set [14] has as its system HUVEC. Put plainly: Cytotoxicity against HUVECs assessed as reduction in cell viability at 100 nM. The format is cell-based. The note with it: human, 0.1 µM.
Data set [15] deals with KB. Put plainly: Cell cycle arrest in human KB cells assessed as accumulation of cells at sub-G1 phase at 100 nM after 24 hrs using propidium iodide staining by flow cytometry. The class given is functional, cell-based.
The target of data set [16] is T1, Tubulin (Homo sapiens). Put plainly: Inhibition of MAP-rich tubulin (unknown origin) polymerization measured every 30 seconds for 30 mins by spectrophotometry. The class given is protein-complex assay.
In data set [17] the target is T1, Tubulin (Homo sapiens). Description: Inhibition of MAP-rich tubulin (unknown origin) polymerization at 10 uM measured every 30 seconds for 30 mins by spectrophotometry. The class given is protein-complex assay.
Data set [18] concerns KB. Description: Cell cycle arrest in human KB cells assessed as accumulation at G2/M phase after 24 hrs using propidium iodide staining by flow cytometry. The class given is functional, cell-based.
For data set [19], the system named is HUVEC. Put plainly: Disruption of vasculature in HUVECs assessed as inhibition of VEGF-induced capillary tube formation at 100 nM by microscopy. The class given is functional, cell-based. The settings on record: Homo sapiens.
In data set [20] the target is T1, Tubulin (Homo sapiens). Put plainly: Competitive inhibition of [3H]colchicine binding to long-chain biotin-labeled tubulin (unknown origin) after 2 hrs by double-reciprocal plot analysis. The format is protein-complex assay.
The test system of data set [21] is KB. Description: Ratio of ABT751 IC50 to compound IC50 for human KB cells. The format is functional.

What is called IC50 is the concentration that gives 50% inhibition. The inhibition is the change of the read-out against control, counted positive when it falls.

Activity calls are given as the source filed them. The calls are words filed in the database; no cut-off is given here.

`COc1ccc(S(=O)(=O)N2CCc3cccc(Nc4ccc(F)c(F)c4)c32)cc1`: the IC50 in the data set with KB [1] was 412 nM; in the data set with HT-29 [3], 968 nM; in data set [4], 726 nM. The Retention_time in data set [2] is recorded as 45.49 min.

For the compound `COc1ccc(S(=O)(=O)N2CCc3cccc(Nc4ccccc4)c32)cc1`, the values for the IC50 (in the data set with KB [1]; in the data set on HT-29 [3]; in [4]) were 342 nM, 343 nM and 187 nM, respectively. In [2], the Retention_time worked out at 44.81 min.

For the compound `CC[C@]1(O)C[C@H]2CN(CCc3c([nH]c4ccccc34)[C@@](C(=O)OC)(c3cc4c(cc3OC)N(C=O)[C@H]3[C@@](O)(C(=O)OC)[C@H](OC(C)=O)[C@]5(CC)C=CCN6CC[C@]43[C@@H]65)C2)C1` [VINCRISTINE], the IC50 in data set [5] stood at 1.2 nM.

Consider `COc1ccc(S(=O)(=O)N2CCc3cccc(Nc4ccc(C(=O)O)cc4)c32)cc1`, for which the IC50 in the data set with KB [1] is 846 nM; in the data set with HT-29 [3], 2380 nM; in data set [4], 1390 nM. The Retention_time in data set [2] is 33.94 min.

As for `COc1ccc(S(=O)(=O)N2CCc3cccc(Nc4ccc([N+](=O)[O-])cc4)c32)cc1`, the IC50 in data set [6] worked out at 109 nM; with KB [1], 101 nM; at Tubulin it was 3700 nM; in data set [5], 115 nM; with HT-29 [3], 191 nM; in data set [9], 95.4 nM. In data set [4], this compound registered a 50% inhibitory concentration (IC50) of 107 nM. In addition, the results for the inhibition on Tubulin (Homo sapiens) [7] and on Tubulin (Homo sapiens) [8] were 69.3% and 44%, respectively. This compound also showed a Retention_time in data set [2] of 42.28 min. For the same compound, the “Ratio IC50” value in the data set with MKN-45 and in the data set with HT-29 [10] was 1.5 throughout.

As to `COc1cc([C@@H]2c3cc4c(cc3[C@@H](O[C@@H]3O[C@@H]5CO[C@@H](C)O[C@H]5[C@H](O)[C@H]3O)[C@H]3COC(=O)[C@H]23)OCO4)cc(OC)c1O` [ETOPOSIDE], the IC50 in data set [6] came out at 23000 nM; in data set [5], 54000 nM; in data set [9], 3500 nM.

For the compound `COc1ccc(S(=O)(=O)N2CCc3cccc(Nc4ccc(C#N)cc4)c32)cc1`, the IC50 was 71.9 nM in data set [6]; 49.7 nM with KB [1]; 3200 nM at Tubulin; 71.1 nM in data set [5]; 149 nM in the data set on HT-29 [3]; 77.3 nM in data set [9]. The IC50 in [4] is 92 nM. For the same compound, the inhibition is 86.4% on Tubulin (Homo sapiens) [7], 83.6% on Tubulin (Homo sapiens) [8] and “Dose-dependent effect” on Tubulin (Homo sapiens) [16]. For the same compound, the result in the data set with KB [11], in the data set on KB [12], in the data set on KB [15] and in the data set on HUVEC [19] was Active. For the same compound, the Retention_time in data set [2] stood at 40.79 min. Besides, the Activity entry is “Dose-dependent effect” with HUVEC [13], “Non-toxic” with HUVEC [14] and “Dose-dependent effect” with KB [18]. Besides, the inhibition entry on Tubulin (Homo sapiens) [17] and on Tubulin (Homo sapiens) [20] was “Active” each time.

For the compound `COc1ccc(S(=O)(=O)N2CCc3cccc(Nc4ccc(Cl)cc4)c32)cc1`, the IC50 with KB [1] was determined as 1100 nM; in the data set on HT-29 [3] it was 658 nM; in [4], 463 nM. For the same compound, the Retention_time in data set [2] was found to be 48.11 min.

For the compound `COc1ccc(S(=O)(=O)N2CCc3cccc(Nc4ccc(F)cc4)c32)cc1`, the IC50 is 557 nM in the data set with KB [1], 588 nM in the data set on HT-29 [3] and 563 nM in data set [4]. In [2], the Retention_time was determined as 44.71 min.

For `COC(=O)c1ccc(Nc2cccc3c2N(S(=O)(=O)c2ccc(OC)cc2)CC3)cc1`, the values for the inhibition at Tubulin (Homo sapiens) [7] and at Tubulin (Homo sapiens) [8] were 66.9% and 41.4%, respectively. Also, the “Ratio IC50” value in the data set on KB [21] was 3. In addition, the IC50 with KB [1] turned out to be 93.5 nM; against Tubulin it was 4700 nM; in the data set with HT-29 [3], 678 nM; in [4], 487 nM. Also, the Retention_time in data set [2] stood at 42.74 min.

As for `COc1ccc(S(=O)(=O)N2CCc3cccc(Nc4ccc(O)cc4)c32)cc1`, the IC50 stood at 239 nM in the data set on KB [1], 511 nM with HT-29 [3] and 493 nM in data set [4]. The Retention_time in [2] was determined as 32 min.

For the compound `COc1ccc(Nc2cccc3c2N(S(=O)(=O)c2ccc(OC)cc2)CC3)cc1`, the IC50 in the data set with KB [1] turned out to be 1200 nM; in the data set with HT-29 [3], 803 nM; in data set [4] it was 487 nM. In data set [2], the Retention_time was determined as 43.47 min.

On to `CC(=O)O[C@H]1C(=O)[C@@]2(C)[C@H]([C@H](OC(=O)c3ccccc3)[C@]3(O)C[C@H](OC(=O)[C@H](O)[C@@H](NC(=O)c4ccccc4)c4ccccc4)C(C)=C1C3(C)C)[C@]1(OC(C)=O)CO[C@@H]1C[C@@H]2O` [PACLITAXEL], for which, in [5], the IC50 was found to be 7.9 nM.
